Numbered stars: 1 amine (or outer) side, 2 acyl side, 3 side chain; on linkers, the order of the positions; unused ones are H or OH. Peptide text beside a SMILES is read from it. * marks the point of attachment. C20 diacid = O=C(O)CCCCCCCCCCCCCCCCCCC(=O)*; C18 diacid = O=C(O)CCCCCCCCCCCCCCCCC(=O)*; γGlu = O=C(O)[C@H](CCC(=O)[*:2])N[*:1]
Columns and labels:
[1] = molecular target: T1, Amylin receptor AMY3; CALCR/RAMP3 (Homo sapiens, UniProt O60896+P30988); test: Agonist activity at human amylin receptor expressed in BHK570 cells co-expressing RAMP3 assessed as increase in intracellular cAMP concentration incubated for 3 hrs in absence of albumin by CRE luciferase reporter gene assay; format: functional, cell-based
T1 sequence (P30988 whole entry): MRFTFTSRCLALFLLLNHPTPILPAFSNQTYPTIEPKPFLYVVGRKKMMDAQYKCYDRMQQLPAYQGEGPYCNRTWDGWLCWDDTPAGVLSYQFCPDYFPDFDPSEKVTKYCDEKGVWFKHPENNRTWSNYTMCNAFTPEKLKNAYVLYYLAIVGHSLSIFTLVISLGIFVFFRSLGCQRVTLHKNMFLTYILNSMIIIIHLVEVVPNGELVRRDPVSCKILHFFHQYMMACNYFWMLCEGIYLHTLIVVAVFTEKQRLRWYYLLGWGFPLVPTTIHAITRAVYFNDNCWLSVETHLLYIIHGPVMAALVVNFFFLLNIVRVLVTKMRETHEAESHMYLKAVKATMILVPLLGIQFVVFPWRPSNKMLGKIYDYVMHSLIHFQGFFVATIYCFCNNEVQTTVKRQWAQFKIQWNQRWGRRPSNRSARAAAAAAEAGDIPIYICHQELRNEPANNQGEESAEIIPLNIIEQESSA
T1 sequence (O60896 whole entry): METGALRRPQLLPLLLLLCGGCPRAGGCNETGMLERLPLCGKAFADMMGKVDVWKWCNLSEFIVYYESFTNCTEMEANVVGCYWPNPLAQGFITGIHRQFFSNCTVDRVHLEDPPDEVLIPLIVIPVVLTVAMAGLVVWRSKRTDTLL

Calcitonin receptor [2] = molecular target: T2, Calcitonin receptor (Homo sapiens, UniProt P30988); test: Agonist activity at human calcitonin receptor expressed in BHK570 cells assessed as increase in intracellular cAMP concentration incubated for 3 hrs in absence of albumin by CRE luciferase reporter gene assay; format: functional, cell-based
T2 sequence (P30988 whole entry): T1 sequence (P30988 whole entry)

[3] = molecular target: T1, Amylin receptor AMY3; CALCR/RAMP3; test: Agonist activity at human amylin receptor expressed in BHK570 cells co-expressing RAMP3 assessed as increase in intracellular cAMP concentration incubated for 3 hrs in presence of 10% FBS by CRE luciferase reporter gene assay; format: functional, cell-based
[4] = Solubility in 100 mM glycylglycine buffer at pH 3.0 incubated for 18 hrs by UPLC analysis; format: physicochemical
[5] = Solubility in 100 mM glycylglycine buffer at pH 4.0 incubated for 18 hrs by UPLC analysis; format: physicochemical
[6] = Solubility in 100 mM bistrispropane buffer at pH 6.0 incubated for 18 hrs by UPLC analysis; format: physicochemical
[7] = Solubility in 100 mM glycylglycine buffer at pH 5.0 incubated for 18 hrs by UPLC analysis; format: physicochemical
[8] = Solubility in 100 mM bistrispropane buffer at pH 6.5 incubated for 18 hrs by UPLC analysis; format: physicochemical
[9] = Solubility in 100 mM bistrispropane buffer at pH 7.0 incubated for 18 hrs by UPLC analysis; format: physicochemical
[10] = Solubility in 100 mM bistrispropane buffer at pH 7.5 incubated for 18 hrs by UPLC analysis; format: physicochemical
[11] = Solubility in 100 mM bistrispropane buffer at pH 8.0 incubated for 18 hrs by UPLC analysis; format: physicochemical
[12] = molecular target: T1, Amylin receptor AMY3; CALCR/RAMP3; test: Displacement of [125I]-labeled rat amylin from human amylin receptor expressed in BHK tkts13 whole cells co-expressing RAMP3 incubated for 60 mins by scintillation proximity assay; format: cell-based
Calcitonin receptor [13] = molecular target: T2, Calcitonin receptor; test: Agonist activity at human calcitonin receptor expressed in BHK570 cells assessed as increase in intracellular cAMP concentration incubated for 3 hrs in presence of 10% FBS by CRE luciferase reporter gene assay; format: functional, cell-based

SMILES | EC50 [1] [pM] | EC50 (Calcitonin receptor [2]) [pM] | EC50 [3] [pM] | solubility at 18 h [4] [µM] | solubility at 18 h [5] [µM] | solubility at 18 h [6] [µM] | solubility at 18 h [7] [µM] | solubility at 18 h [8] [µM] | solubility at 18 h [9] [µM] | solubility at 18 h [10] [µM] | solubility at 18 h [11] [µM] | IC50 [12] [pM] | EC50 (Calcitonin receptor [13]) [pM]
CC(C)C[C@H](NC(=O)[C@H](C)NC(=O)[C@H](C)NC(=O)[C@@H](NC(=O)[C@H](CO)NC(=O)[C@H](CC(C)C)NC(=O)[C@H](CCC(=O)O)NC(=O)[C@H](CO)NC(=O)[C@H](C)NC(=O)CC[C@H](NC(=O)CCCCCCCCCCCCCCCCC(=O)O)C(=O)O)[C@@H](C)O)C(=O)NCC(=O)N[C@@H](CCCNC(=N)N)C(=O)N[C@@H](CC(C)C)C(=O)N[C@@H](CO)C(=O)N[C@@H](C)C(=O)N[C@@H](CCC(=O)O)C(=O)N[C@@H](CC(C)C)C(=O)N[C@@H](Cc1cnc[nH]1)C(=O)N[C@@H](CCC(=O)O)C(=O)N[C@@H](CC(C)C)C(=O)N[C@@H](C)C(=O)N[C@H](C(=O)N[C@@H](CC(C)C)C(=O)N1CCC[C@H]1C(=O)N[C@@H](CCCNC(=N)N)C(=O)N[C@H](C(=O)N[C@@H](CCC(=O)O)C(=O)N[C@H](C(=O)NCC(=O)N[C@@H](CO)C(=O)NCC(=O)N1CCC[C@H]1C(=O)N1CCC[C@H]1C(N)=O)[C@@H](C)O)[C@@H](C)O)[C@@H](C)O ({C18 diacid-γGlu}-ASELSTAALGRLSAELHELATLPRTETGSGPP-NH2) | 80 | 19 | 413 | ≥ 200 | ≥ 200 | ≥ 200 | ≥ 200 | ≥ 200 | ≥ 200 | ≥ 200 | ≥ 200 | 22000 | –
CC(C)C[C@H](NC(=O)[C@H](C)NC(=O)[C@H](C)NC(=O)[C@@H](NC(=O)[C@H](CO)NC(=O)[C@H](CC(C)C)NC(=O)[C@H](CCC(=O)O)NC(=O)[C@H](CO)NC(=O)[C@H](C)NC(=O)CC[C@H](NC(=O)CCCCCCCCCCCCCCCCCCC(=O)O)C(=O)O)[C@@H](C)O)C(=O)NCC(=O)N[C@@H](CCCNC(=N)N)C(=O)N[C@@H](CC(C)C)C(=O)N[C@@H](CO)C(=O)N[C@@H](C)C(=O)N[C@@H](CCC(=O)O)C(=O)N[C@@H](CC(C)C)C(=O)N[C@@H](Cc1cnc[nH]1)C(=O)N[C@@H](CCC(=O)O)C(=O)N[C@@H](CC(C)C)C(=O)N[C@@H](CO)C(=O)N[C@H](C(=O)N[C@@H](Cc1ccc(O)cc1)C(=O)N1CCC[C@H]1C(=O)N[C@@H](CCCNC(=N)N)C(=O)N[C@H](C(=O)N[C@@H](CCC(=O)O)C(=O)N[C@H](C(=O)NCC(=O)N[C@@H](CO)C(=O)NCC(=O)N[C@@H](CO)C(=O)N[C@@H](Cc1ccc(O)cc1)C(N)=O)[C@@H](C)O)[C@@H](C)O)[C@@H](C)O ({C20 diacid-γGlu}-ASELSTAALGRLSAELHELSTYPRTETGSGSY-NH2) | 50 | 34 | 64 | ≥ 200 | ≥ 200 | ≥ 200 | – | ≥ 200 | ≥ 200 | ≥ 200 | ≥ 200 | 186 | –

Further lines, results first:

EC50 [1] [pM] | EC50 (Calcitonin receptor [2]) [pM] | EC50 [3] [pM] | solubility at 18 h [4] [µM] | solubility at 18 h [5] [µM] | solubility at 18 h [6] [µM] | solubility at 18 h [7] [µM] | solubility at 18 h [8] [µM] | solubility at 18 h [9] [µM] | solubility at 18 h [10] [µM] | solubility at 18 h [11] [µM] | IC50 [12] [pM] | EC50 (Calcitonin receptor [13]) [pM] | SMILES
9 | 4 | 26 | ≥ 200 | ≥ 200 | ≥ 200 | ≥ 200 | ≥ 200 | ≥ 200 | ≥ 200 | ≥ 200 | 830 | – | CC(C)C[C@H](NC(=O)[C@H](C)NC(=O)[C@H](C)NC(=O)[C@@H](NC(=O)[C@H](CO)NC(=O)[C@H](CC(C)C)NC(=O)[C@H](CCC(=O)O)NC(=O)[C@H](CO)NC(=O)[C@H](C)NC(=O)CC[C@H](NC(=O)CCCCCCCCCCCCCCCCC(=O)O)C(=O)O)[C@@H](C)O)C(=O)NCC(=O)N[C@@H](CCCNC(=N)N)C(=O)N[C@@H](CC(C)C)C(=O)N[C@@H](CO)C(=O)N[C@@H](C)C(=O)N[C@@H](CCC(=O)O)C(=O)N[C@@H](CC(C)C)C(=O)N[C@@H](Cc1cnc[nH]1)C(=O)N[C@@H](CCC(=O)O)C(=O)N[C@@H](CC(C)C)C(=O)N[C@@H](C)C(=O)N[C@H](C(=O)N[C@@H](CC(C)C)C(=O)N1CCC[C@H]1C(=O)N[C@@H](CCCNC(=N)N)C(=O)N[C@H](C(=O)N[C@@H](CCC(=O)O)C(=O)N[C@H](C(=O)NCC(=O)N[C@@H](CO)C(=O)N[C@@H](CCC(=O)O)C(=O)N[C@@H](CO)C(=O)N1CCC[C@H]1C(N)=O)[C@@H](C)O)[C@@H](C)O)[C@@H](C)O ({C18 diacid-γGlu}-ASELSTAALGRLSAELHELATLPRTETGSESP-NH2)
13 | 8 | 39 | ≥ 200 | ≥ 200 | ≥ 200 | ≥ 200 | ≥ 200 | ≥ 200 | ≥ 200 | ≥ 200 | – | 19 | CC(C)C[C@H](NC(=O)[C@H](C)NC(=O)[C@H](C)NC(=O)[C@@H](NC(=O)[C@H](CO)NC(=O)[C@H](CC(C)C)NC(=O)[C@H](CCC(=O)O)NC(=O)[C@H](CO)NC(=O)[C@H](C)NC(=O)CC[C@H](NC(=O)CCCCCCCCCCCCCCCCC(=O)O)C(=O)O)[C@@H](C)O)C(=O)NCC(=O)N[C@@H](CCCNC(=N)N)C(=O)N[C@@H](CC(C)C)C(=O)N[C@@H](CO)C(=O)N[C@@H](C)C(=O)N[C@@H](CCC(=O)O)C(=O)N[C@@H](CC(C)C)C(=O)N[C@@H](Cc1cnc[nH]1)C(=O)N[C@@H](CCC(=O)O)C(=O)N[C@@H](CC(C)C)C(=O)N[C@@H](C)C(=O)N[C@H](C(=O)N[C@@H](CC(C)C)C(=O)N1CCC[C@H]1C(=O)N[C@@H](CCCNC(=N)N)C(=O)N[C@H](C(=O)N[C@@H](CCC(=O)O)C(=O)N[C@H](C(=O)NCC(=O)N[C@@H](CO)C(=O)N1CCC[C@H]1C(=O)N[C@@H](CO)C(=O)N1CCC[C@H]1C(N)=O)[C@@H](C)O)[C@@H](C)O)[C@@H](C)O ({C18 diacid-γGlu}-ASELSTAALGRLSAELHELATLPRTETGSPSP-NH2)
– | 8 | 38 | ≥ 200 | – | ≥ 200 | – | ≥ 200 | ≥ 200 | ≥ 200 | ≥ 200 | 1170 | 11 | CC(C)C[C@H](NC(=O)[C@H](CCC(=O)O)NC(=O)[C@H](Cc1cnc[nH]1)NC(=O)[C@H](CC(C)C)NC(=O)[C@H](CCC(=O)O)NC(=O)[C@H](C)NC(=O)[C@H](CO)NC(=O)[C@H](CC(C)C)NC(=O)[C@H](CCCNC(=N)N)NC(=O)CNC(=O)[C@@H](NC(=O)[C@@H](NC(=O)[C@H](C)NC(=O)[C@@H](NC(=O)[C@H](CO)NC(=O)[C@@H](NC(=O)[C@H](CCC(=O)O)NC(=O)[C@H](CO)NC(=O)[C@H](C)NC(=O)CC[C@H](NC(=O)CCCCCCCCCCCCCCCCC(=O)O)C(=O)O)C(C)C)[C@@H](C)O)C(C)C)C(C)C)C(=O)N[C@@H](C)C(=O)N[C@H](C(=O)N[C@@H](CC(C)C)C(=O)N1CCC[C@H]1C(=O)N[C@@H](CCCNC(=N)N)C(=O)N[C@H](C(=O)N[C@@H](CCC(=O)O)C(=O)N[C@H](C(=O)NCC(=O)N[C@@H](CO)C(=O)NCC(=O)N[C@@H](CO)C(=O)N1CCC[C@H]1C(N)=O)[C@@H](C)O)[C@@H](C)O)[C@@H](C)O ({C18 diacid-γGlu}-ASEVSTAVVGRLSAELHELATLPRTETGSGSP-NH2)

— ChEMBL document CHEMBL4420076, “Amylin and calcitonin receptor agonist” (2017)
